Laboratory results taken from US11548892B1, “Transglutaminase 2 (TG2) inhibitors” (Sitari Pharma, Inc., priority 2018, dated 2023).

molecular target: TG2 (Homo sapiens (Human), UniProt P21980); assay: Transglutaminase (TG) Inhibitor Assay; assay type: biochemical; conditions: fluorescence of dansyl cadaverine cross-linked into N,N-dimethylated casein; 8 point titration
Protocol: Using the fluorescent amine donor, dansyl cadaverine (DSC), and the multiple glutamine bearing amine acceptor N,N-dimethylated casein (NMC), TG activity was measured via the change in fluorescence of cross-linked DSC into NMC over time.

Chain of TG2 (P21980 whole entry): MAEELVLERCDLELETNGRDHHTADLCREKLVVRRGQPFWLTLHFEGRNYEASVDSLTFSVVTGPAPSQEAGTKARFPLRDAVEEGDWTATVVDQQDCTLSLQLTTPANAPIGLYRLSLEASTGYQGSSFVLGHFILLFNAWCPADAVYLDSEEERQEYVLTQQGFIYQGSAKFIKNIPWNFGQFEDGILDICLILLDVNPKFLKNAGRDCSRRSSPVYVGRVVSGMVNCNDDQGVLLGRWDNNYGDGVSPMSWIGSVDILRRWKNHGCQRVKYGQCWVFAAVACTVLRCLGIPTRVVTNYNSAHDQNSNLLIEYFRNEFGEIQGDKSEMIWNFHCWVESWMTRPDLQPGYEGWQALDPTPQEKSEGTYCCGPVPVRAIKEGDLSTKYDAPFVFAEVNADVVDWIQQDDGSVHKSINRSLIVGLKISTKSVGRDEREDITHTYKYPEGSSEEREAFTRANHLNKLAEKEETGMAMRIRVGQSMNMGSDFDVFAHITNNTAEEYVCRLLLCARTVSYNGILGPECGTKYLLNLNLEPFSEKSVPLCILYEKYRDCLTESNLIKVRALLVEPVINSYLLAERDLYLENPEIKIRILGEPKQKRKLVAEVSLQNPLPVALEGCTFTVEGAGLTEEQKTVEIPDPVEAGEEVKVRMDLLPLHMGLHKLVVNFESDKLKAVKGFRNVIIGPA

| Structure (SMILES) | IC50 [nM] |
| --- | --- |
| [2H]C([2H])(C/C=C/C(=O)N(C)C)C(OC(=O)N(C)C)C(=O)Nc1cccn(Cc2nc3cc(F)ccc3[nH]2)c1=O (stereo not drawn) [Compound 54] | 500 to 5000 |
| COC(=O)N[C@@H](CC/C=C/C(=O)N(C)C)C(=O)Nc1cccn(Cc2nc3c(N(C)C)nc(C)nc3[nH]2)c1=O [Compound 504] | 500 to 5000 |
| COC(=O)N[C@@H](CC/C=C/C(=O)N(C)C)C(=O)Nc1cncn(Cc2nc3c(CCC(F)(F)F)cc(F)cc3n2C(=O)OC(C)(C)C)c1=O [Compound 102, tert-butyl 2-[[5-[[(E,2S)-7-(dimethylamino)-2-(methoxycarbonylamino)-7-oxo-hept-5-enoyl]amino]-6-oxo-pyrimidin-1-yl]methyl]-6-fluoro-4-(3,3,3-trifluoropropyl)benzimidazole-1-carboxylate] | < 500 |
| COC(=O)N[C@@H](CC/C=C/C(=O)N(C)C)C(=O)Nc1cncn(Cc2nc3cc(F)cc(CCC(F)(F)F)c3[nH]2)c1=O [Compound 103, methyl N-[(E,1S)-6-(dimethylamino)-1-[[1-[[5-fluoro-7-(3,3,3-trifluoropropyl)-1H-benzimidazol-2-yl]methyl]-6-oxo-pyrimidin-5-yl]carbamoyl]-6-oxo-hex-4-enyl]carbamate] | < 500 |
| COCc1ccc(NC(=O)[C@H](CC/C=C/C(=O)N(C)C)NC(=O)OC)c(=O)n1Cc1nc2c(F)cnc(CC(C)C)c2[nH]1 [Compound 599] | < 500 |
| COC(=O)N[C@@H](CC/C=C/C(=O)N(C)C)C(=O)Nc1cccn(Cc2cc3c(F)cnc(C=C(C)C)c3[nH]2)c1=O [Compound 501] | < 500 |
| [2H]C([2H])(C/C=C/C(=O)N(C)C)C(OC(=O)N(C)C)C(=O)Nc1cccn(Cc2cc3cc(F)ccc3n2C(=O)OC(C)(C)C)c1=O (stereo not drawn) [Compound 224] | < 500 |
| COC(=O)N[C@@H](CC/C=C/C(=O)N(C)C)C(=O)Nc1cccn(Cc2cc3ncc(F)c(CC4CCC4)c3[nH]2)c1=O [Compound 585] | < 500 |
| CC(C)Cn1c(Cn2ccnc(NC(=O)[C@H](CC/C=C/C(=O)N(C)C)OC(=O)N(C)C)c2=O)cc2cc(F)ccc21 [Compound 344, [(E,1S)-6-(dimethylamino)-1-[[4-[(5-fluoro-1-isobutyl-indol-2-yl)methyl]-3-oxo-pyrazin-2-yl]carbamoyl]-6-oxo-hex-4-enyl]N,Ndimethylcarbamate] | < 500 |
| COC(=O)N[C@@H](CC/C=C/C(=O)N(C)C)C(=O)Nc1cccn(Cc2cc3ncnc(CC(C)C)c3[nH]2)c1=O [Compound 459, methyl N-[(E,1S)-6-(dimethylamino)-1-[[1-[(4-isobutyl-5H-pyrrolo[3,2-d]pyrimidin-6-yl)methyl]-2-oxo-3-pyridyl]carbamoyl]-6-oxo-hex-4-enyl]carbamate] | < 500 |
| COC(=O)N[C@@H](CC/C=C/C(=O)N(C)C)C(=O)Nc1cccn(Cc2nc3c(CC(C)C)c(F)cnc3[nH]2)c1=O [Compound 525] | < 500 |
| [2H]C([2H])(C/C=C/C(=O)N(C)C)C(OC(=O)N(C)C)C(=O)Nc1cccn(Cc2cc3cc(F)cc(CC(C)C)c3n2C(=O)OC(C)(C)C)c1=O (stereo not drawn) [Compound 307] | 500 to 5000 |
| CN(C)C(=O)/C=C/CC[C@H](OC(=O)N(C)C)C(=O)Nc1cccn(Cc2nc3ccc(F)cc3n2Cc2ccc(F)cc2)c1=O [Compound 208] | 500 to 5000 |
| CN(C)C(=O)/C=C/CC[C@H](OC(=O)N(C)C)C(=O)Nc1ccnn(Cc2nc3cc(F)cc(CC(C)(C)C)c3[nH]2)c1=O [Compound 85, [(E,1S)-6-(dimethylamino)-1-[[2-[[7-(2,2-dimethylpropyl)-5-fluoro-1H-benzimidazol-2-yl]methyl]-3-oxo-pyridazin-4-yl]carbamoyl]-6-oxo-hex-4-enyl]N,N-dimethylcarbamate] | < 500 |
| CN(C)C(=O)/C=C/CC[C@H](NC(=O)OC(C)(C)C)C(=O)Nc1cccn(Cc2nc3cccc(C(O)C(C)(C)C)c3[nH]2)c1=O (stereo partly drawn) [Compound 160, tert-butyl ((2S,E)-7-(dimethylamino)-1-((1-((7-(1-hydroxy-2,2-dimethylpropyl)-1H-benzo[d]imidazol-2-yl)methyl)-2-oxo-1,2-dihydropyridin-3-yl)amino)-1,7-dioxohept-5-en-2-yl)carbamate] | < 500 |
| CN(C)C(=O)/C=C/CC[C@H](OC(=O)N(C)C)C(=O)Nc1cccn(Cc2nc3ccc(F)cc3n2Cc2ccccc2)c1=O [Compound 202, [(E,1S)-1-[[1-[(1-benzyl-6-fluoro-benzimidazol-2-yl)methyl]-2-oxo-3-pyridyl]carbamoyl]-6-(dimethylamino)-6-oxo-hex-4-enyl]N,N-dimethylcarbamate] | 500 to 5000 |
| COC(=O)N(C)[C@@H](CC/C=C/C(=O)N(C)C)C(=O)Nc1cccn(Cc2nc3cccc(OCc4ccc(F)cc4F)c3[nH]2)c1=O [Compound 115, methyl (S,E)-methyl(1-((1-((7-((2,4-difluorobenzyl)oxy)-1H-benzo[d]imidazol-2-yl)methyl)-2-oxo-1,2-dihydropyridin-3-yl)amino)-7-(dimethylamino)-1,7-dioxohept-5-en-2-yl)carbamate] | < 500 |
| [2H]C([2H])(C/C=C/C(=O)N(C)C)C(OC(=O)N(C)C)C(=O)Nc1cccn(Cc2cc3cc(F)cc(CC(C)C)c3[nH]2)c1=O (stereo not drawn) [Compound 308] | < 500 |
| [2H]C([2H])(C/C=C/C(=O)N(C)C)C(OC(=O)N(C)C)C(=O)Nc1cccn(Cc2cc3cc(F)cc(OCc4ccc(F)cc4F)c3n2C(=O)OC(C)(C)C)c1=O (stereo not drawn) [Compound 303] | 5000 to 100000 |
| CC(C)Cc1cccc2c1nc(Cn1cccc(NC(=O)[C@H](CC/C=C/C(N)=O)NC(=O)OCc3ccccc3)c1=O)n2C(=O)OC(C)(C)C [Compound 3] | < 500 |
| COC(=O)N[C@@H](CC/C=C/C(=O)N(C)C)C(=O)Nc1cncn(Cc2nc3cc(F)ccc3n2C)c1=O [Compound 174, methyl N-[(E,1S)-6-(dimethylamino)-1-[[1-[(5-fluoro-1-methyl-benzimidazol-2-yl)methyl]-6-oxo-pyrimidin-5-yl]carbamoyl]-6-oxo-hex-4-enyl]carbamate] | 5000 to 100000 |
| CN(C)C(=O)/C=C/CC[C@H](OC(=O)N(C)C)C(=O)Nc1cccn(Cc2nc3cc(F)ccc3n2Cc2ccc(F)cc2)c1=O [Compound 207] | 500 to 5000 |
| [2H]C([2H])(C/C=C/C(=O)N(C)C)C(OC(=O)N(C)C)C(=O)Nc1cccn(Cc2cc3cccc(CC(C)C)c3n2C(=O)OC(C)(C)C)c1=O (stereo not drawn) [Compound 247] | 500 to 5000 |
| [2H]C([2H])(C/C=C/C(=O)N(C)C)C(OC(=O)N(C)C)C(=O)Nc1cccn(Cc2nc3cc(F)ccc3[nH]2)c1=O (stereo not drawn) [Compound 55] | 500 to 5000 |
| COC(=O)N[C@@H](CC/C=C/C(=O)N(C)C)C(=O)Nc1cccn(Cc2nc3c(CC(C(F)(F)F)C(F)(F)F)cccc3n2C(=O)OC(C)(C)C)c1=O [Compound 148, (S,E)-tert-butyl 2-((3-(7-(dimethylamino)-2-((methoxycarbonyl)amino)-7-oxohept-5-enamido)-2-oxopyridin-1(2H)-yl)methyl)-4-(3,3,3-trifluoro-2-(trifluoromethyl)propyl)-1H-benzo[d]imidazole-1-carboxylate] | 500 to 5000 |
| COC(=O)N[C@@H](CC/C=C/C(=O)N(C)C)C(=O)Nc1cc(F)c(C)n(Cc2nc3c(F)cnc(CC(C)C)c3[nH]2)c1=O [Compound 583] | < 500 |

same assay, conditions: fluorescence of dansyl cadaverine cross-linked into N,N-dimethylated casein; 8 point titration; listed as 101

| Structure (SMILES) | IC50 [nM] |
| --- | --- |
| COCc1ccc(NC(=O)[C@H](CC/C=C/C(=O)N(C)C)NC(=O)OC)c(=O)n1Cc1nc2c(F)cnc(CC(C)C)c2[nH]1 [Compound 599] | 500 to 5000 |
